Each structure is given as a SMILES string.

In one experiment the test system is nematodes in soil. Put plainly: Orange grove field trial: reduction of nematodes in soil vs untreated soil. As to conditions: clay loam soil, compared to untreated soil, NatureCur applied 3 times 30 days apart at 5000 ppm, the other agents applied once in mid-May. It is filed as in vivo. On the procedure:
(§1) A field trial was conducted on an orange grove, comparing the effect of the composition described in Example 1 (under its trade name, NatureCur™) against two widely used, commercially available nematicides, an emusifiable concentrate of 1,3 dichloropropene which can be applied to the soil after plants are planted (called a “post-plant” application) (Dow AgroSciences LLC, Indianapolis, Ind.), shown on the accompanying charts as “Cordon,” and imidacloprid, an insecticide marketed under the name Admire® (Bayer CropScience LP, Research Triangle Park, N.C.). For the soil treated with Cordon and the soil treated with Admire®, single applications of the agents were made in mid-May. The product NatureCur™ was applied in once in mid-May, once 30 days later in mid-June, and once again 30 days later in mid July, each time at a concentration of 5000 ppm. The soil in the grove was a clay loam, a very dense, heavy soil in which it is difficult to get agents to travel. Thus, the soil in this grove provided a particularly difficult test condition for NatureCur™, which has to infiltrate through the soil in water.
Samples were taken of the soil around the plants and of the roots. The percentage of reduction in number of nematodes in soil treated with the three agents compared to untreated soil is shown in Table 1 and FIG. 1.

In the next experiment the test system is nematodes in roots. Put plainly: Orange grove field trial: reduction of nematodes in plant roots vs plants in untreated soil. The experiment is classed as in vivo. The following applies: clay loam soil, compared to roots of plants in untreated soil, NatureCur applied 3 times 30 days apart at 5000 ppm, the other agents applied once in mid-May. The procedure:
as §1
The percentage of reduction in number of nematodes in roots of plants whose soil was treated with the three agents compared to roots of plants in untreated soil is shown in Table 2 and FIG. 2.

As for `ClC=CCCl` [1,3 dichloropropene], in the experiment on nematodes in soil, the “Percent reduction in nematodes in soil” value stood at 58%. For the same molecule, in the experiment with nematodes in roots, the “Percent reduction in nematodes in roots” value worked out at 61%.

With `O=[N+]([O-])NC1=NCCN1Cc1ccc(Cl)nc1` [Imidacloprid, imidacloprid], in the experiment on nematodes in soil, the “Percent reduction in nematodes in soil” value was found to be 32%. Besides, in the experiment with nematodes in roots, the “Percent reduction in nematodes in roots” value was 46%.

These data come from patent US8389030B2, “Nematicides from Juglandaceae and methods of use thereof” (Redox Chemicals, Inc., priority 2004, dated 2013).
